Results on 38 molecules are retold here after patent US8791139B2, “Anthranilic diamide derivatives” (Bayer Cropscience AG, priority 2010, dated 2014).

Where “and” joins values, the source holds several entries; their conditions need not be identical. Equal entries are not always repeated.

The first data set in a line: logP by HPLC on reversed-phase columns (C18), EEC Directive 79/831 Annex V.A8. The format is physicochemical. Conditions: HPLC reversed-phase C18, acidic range pH 2.7; Preparation Examples (intermediates). On the procedure: The logP values reported in the table above and in the Preparation Examples were determined in accordance with EEC Directive 79/831 Annex V.A8 by HPLC (High Performance Liquid Chromatography) on reversed-phase columns (C18), with the following methods:
The LC-MS determination in the acidic range is carried out at pH 2.7 using the mobile phases 0.1% aqueous formic acid and acetonitrile (contains 0.1% formic acid), linear gradient from 10% acetonitrile to 95% acetonitrile
Calibration was carried out using unbranched alkan-2-ones (having from 3 to 16 carbon atoms) with known logP values (the logP values were determined by the retention times using linear interpolation between two successive alkanones).
One may read the logP as a log measure of how a compound divides between an organic and an aqueous phase. Read a high logP as a more lipophilic compound. For the molecule “1-(3-Chloropyridin-2-yl)-3-{(E)-2-[5-(trifluoromethyl)-2H-tetrazol-2-yl]vinyl}-1H-pyrazole-5-carboxylic acid/1-(3-chloropyridin-2-yl)-3-{(E)-2-[5-(trifluoromethyl)-1H-tetrazol-1-yl]vinyl}-1H-pyrazole-5-carboxylic acid [Example No. XIV]”, the log partition coefficient (logP) was 2.79 and 2.86.

The data set is the same for the next values; noted with them: pH 2.7, log P.
As to `CNC(=O)c1cc(Br)cc(C)c1NC(=O)c1cc(C(=O)Nc2ccc(C(F)(F)F)cc2)nn1-c1ncccc1Cl` [Example 2], the chromatographic logP was 3.53.

With `CNC(=O)c1cc(Cl)cc(C)c1NC(=O)c1cc(C(=O)Nc2ccc(C(F)(F)F)cc2)nn1-c1ncccc1Cl` [Example 5], the chromatographic logP turned out to be 3.46.

On to `CNC(=O)c1cc(Cl)cc(C)c1NC(=O)c1cc(C(=O)Nc2cc(C(F)(F)F)cc(C(F)(F)F)c2)nn1-c1ncccc1Cl` [Example 6], for which the chromatographic logP is 4.16.

With `CNC(=O)c1cc(C#N)cc(C)c1NC(=O)c1cc(C#Cc2ccc(OC)cc2)nn1-c1ncccc1Cl` [Example 8], the chromatographic logP was 3.11.

Molecule `Cc1cc(Cl)cc(C(N)=O)c1NC(=O)c1cc(C#Cc2ccc(OC(F)(F)F)cc2)nn1-c1ncccc1Cl` [Example 9] registered a chromatographic logP of 3.94.

For the molecule `Cc1cc(C#N)cc(C(=O)NC(C)(C)C)c1NC(=O)c1cc(C(=O)Cn2nnc(C(F)(F)F)n2)nn1-c1ncccc1Cl` [Example 16], the chromatographic logP came out at 3.66.

`CNC(=O)c1cc(Cl)cc(C)c1NC(=O)c1cc(N2CCN(Cc3ccc(Cl)nc3)C2=O)nn1-c1ncccc1Cl` [Example 28] came in with a chromatographic logP of 2.64.

For `CNC(=O)c1cc(C#N)cc(C)c1NC(=O)c1cc(N2CCN(Cc3ccc(Cl)nc3)C2=O)nn1-c1ncccc1Cl` [Example 29], the chromatographic logP amounted to 2.31.

For `Cc1cc(C#N)cc(C(=O)NC(C)(C)C)c1NC(=O)c1cc(N2CCN(Cc3ccc(Cl)nc3)C2=O)nn1-c1ncccc1Cl` [Example 30], the chromatographic logP came out at 3.02.

The molecule `Cc1cc(Cl)cc(C(N)=O)c1NC(=O)c1cc(C(=O)C(=O)c2ccc(Cl)cc2Cl)nn1-c1ncccc1Cl` [Example 31] came in with a chromatographic logP of 3.51.

Turning to `CNC(=O)c1cc(Cl)cc(C)c1NC(=O)c1cc(CNS(=O)(=O)c2ccccc2Cl)nn1-c1ncccc1Cl` [Example 37], the chromatographic logP turned out to be 2.58.

Molecule `Cc1cc(Cl)cc(C(=O)NC(C)C)c1NC(=O)c1cc(CNS(=O)(=O)c2ccccc2Cl)nn1-c1ncccc1Cl` [Example 38] had a chromatographic logP of 3.06.

Consider `Cc1cc(Cl)cc(C(=O)NC2CC2)c1NC(=O)c1cc(CNS(=O)(=O)c2ccccc2Cl)nn1-c1ncccc1Cl` [Example 39], for which the chromatographic logP worked out at 2.8.

Take `Cc1cc(Cl)cc(C(=O)NC(C)C)c1NC(=O)c1cc(CNS(=O)(=O)c2cccc(Cl)c2)nn1-c1ncccc1Cl` [Example 43]: the chromatographic logP was 3.25.

As for `Cc1cc(Cl)cc(C(=O)NC(C)C)c1NC(=O)c1cc(CNS(=O)(=O)c2ccccc2)nn1-c1ncccc1Cl` [Example 44], the chromatographic logP turned out to be 2.84.

Molecule `Cc1cc(Cl)cc(C(=O)NC(C)C)c1NC(=O)c1cc(CNS(=O)(=O)c2ccccc2C(F)(F)F)nn1-c1ncccc1Cl` [Example 45] registered a chromatographic logP of 3.26.

With `Cc1cc(Cl)cc(C(=O)NC(C)C)c1NC(=O)c1cc(CNS(=O)(=O)c2ccc(Cl)cc2)nn1-c1ncccc1Cl` [Example 47], the chromatographic logP turned out to be 3.25.

Consider `Cc1cc(Cl)cc(C(=O)NC(C)C)c1NC(=O)c1cc(CNS(=O)(=O)c2cccc(C(F)(F)F)c2)nn1-c1ncccc1Cl` [Example 48], for which the chromatographic logP is 3.43.

Molecule `Cc1cc(Cl)cc(C(=O)NC(C)C)c1NC(=O)c1cc(CNS(=O)(=O)Cc2ccccc2C(F)(F)F)nn1-c1ncccc1Cl` [Example 49] displayed a chromatographic logP of 2.62.

`Cc1cc(Cl)cc(C(=O)NC(C)C)c1NC(=O)c1cc(CNS(=O)(=O)Cc2ccc(C(F)(F)F)cc2)nn1-c1ncccc1Cl` [Example 50] came in with a chromatographic logP of 2.28.

`Cc1cc(Cl)cc(C(=O)NC(C)C)c1NC(=O)c1cc(CNS(=O)(=O)Cc2cccc(C(F)(F)F)c2)nn1-c1ncccc1Cl` [Example 51]: the chromatographic logP was 3.42.

The same data set, now with this note: reversed-phase HPLC column (C18), pH 2.7, HPLC reversed-phase C18, acidic range pH 2.7, 0.1% aqueous formic acid/acetonitrile; table of compounds of formula (I); read-out: log P.
Consider `Cc1cc(Cl)cc(C(=O)NC(C)C)c1NC(=O)c1cc(C(=O)Nc2cc(C(F)(F)F)cc(C(F)(F)F)c2)nn1-c1ncccc1Cl` [Example 7], for which the chromatographic logP came out at 4.62.

As to `CNC(=O)c1cc(C#N)cc(C)c1NC(=O)c1cc(N2CCN(c3cc(C(F)(F)F)cc(C(F)(F)F)c3)C2=O)nn1-c1ncccc1Cl` [Example 23], the chromatographic logP came to 4.08.

Turning to `Cc1cc(Cl)cc(C(=O)NC(C)(C)C)c1NC(=O)c1cc(N2CCN(c3cc(C(F)(F)F)cc(C(F)(F)F)c3)C2=O)nn1-c1ncccc1Cl` [Example 24], the chromatographic logP was determined as 5.29.

On to `Cc1cc(C#N)cc(C(=O)NC(C)(C)C)c1NC(=O)c1cc(N2CCN(c3cc(C(F)(F)F)cc(C(F)(F)F)c3)C2=O)nn1-c1ncccc1Cl` [Example 25], for which the chromatographic logP came out at 4.84.

Take `Cc1cc(Cl)cc(C(=O)NC(C)C)c1NC(=O)c1cc(N2CCN(c3cc(C(F)(F)F)cc(C(F)(F)F)c3)C2=O)nn1-c1ncccc1Cl` [Example 26]: the chromatographic logP was determined as 4.97.

On to `Cc1cc(C#N)cc(C(=O)NC(C)C)c1NC(=O)c1cc(N2CCN(c3cc(C(F)(F)F)cc(C(F)(F)F)c3)C2=O)nn1-c1ncccc1Cl` [Example 27], for which the chromatographic logP is 4.55.

In the case of `Cc1cc(Cl)cc(C(=O)NC(C)C2CC2)c1NC(=O)c1cc(CNS(=O)(=O)c2cc(C(F)(F)F)cc(C(F)(F)F)c2)nn1-c1ncccc1Cl` (centres unmarked) [Example 34], the chromatographic logP was 4.38.

As to `Cc1cc(Cl)cc(C(=O)NC(C)C)c1NC(=O)c1cc(CNS(=O)(=O)c2cc(C(F)(F)F)cc(C(F)(F)F)c2)nn1-c1ncccc1Cl` [Example 35], the chromatographic logP was 4.1.

As for `CNC(=O)c1cc(Cl)cc(C)c1NC(=O)c1cc(CNS(=O)(=O)c2cc(C(F)(F)F)cc(C(F)(F)F)c2)nn1-c1ncccc1Cl` [Example 36], the chromatographic logP was 3.62.

With `Cc1cc(Cl)cc(C(=O)NC(C)C)c1NC(=O)c1cc(CNS(=O)(=O)c2cc(C(F)(F)F)ccc2C(F)(F)F)nn1-c1ncccc1Cl` [Example 40], the chromatographic logP is 3.84.

Consider `Cc1cc(Cl)cc(C(=O)NC(C)C)c1NC(=O)c1cc(CNS(=O)(=O)c2c(C(F)(F)F)cccc2C(F)(F)F)nn1-c1ncccc1Cl` [Example 41], for which the chromatographic logP is 3.63.

In the case of `Cc1cc(Cl)cc(C(=O)NC(C)C)c1NC(=O)c1cc(CNS(=O)(=O)c2ccc(C(F)(F)F)cc2C(F)(F)F)nn1-c1ncccc1Cl` [Example 42], the chromatographic logP is 3.94.

For the molecule `Cc1cc(Cl)cc(C(=O)NC(C)C)c1NC(=O)c1cc(CNS(=O)(=O)Cc2cc(C(F)(F)F)cc(C(F)(F)F)c2)nn1-c1ncccc1Cl` [Example 53], the chromatographic logP was determined as 3.95.

For `Cc1cc(Cl)cc(C(=O)NC(C)C)c1NC(=O)c1cc(CNS(=O)(=O)c2ccc(C(F)(F)F)c(C(F)(F)F)c2)nn1-c1ncccc1Cl` [Example 54], the chromatographic logP came out at 4.

Turning to `Cc1cc(Cl)cc(C(=O)NC(C)C)c1NC(=O)c1cc(CN(Cc2cc(C(F)(F)F)cc(C(F)(F)F)c2)S(C)(=O)=O)nn1-c1ncccc1Cl` [Example 57], the chromatographic logP is 4.26.

As for `Cc1cc(Cl)cc(C(=O)NC(C)C2CC2)c1NC(=O)c1cc(CN(Cc2cc(C(F)(F)F)cc(C(F)(F)F)c2)S(C)(=O)=O)nn1-c1ncccc1Cl` (centres unmarked) [Example 58], the chromatographic logP amounted to 4.54.
